The compounds below were run on Influenza A virus (assay: Antiviral activity against Influenza A virus A/WSN/33(H1N1) expressing M2 proton channel S31N mutant infected in MDCK cells assessed as reduction in plaque formation preincubated for 30 mins followed by infection measured on day 2 post infection by naphthalene black dye-based assay).
Type: functional, organism-based, A/WSN/1933(H1N1)

Compound	EC50 [nM]
OC12CC3CC(C1)CC(NCc1cc(-c4cccs4)on1)(C3)C2	510
OC1C2CC3CC1CC(NCc1cc(-c4cccs4)on1)(C3)C2 (configuration not stated)	727
Oc1ccc(NC23CC4CC(CC(C4)C2)C3)c(O)c1	3200
OC12CC3CC(O)(C1)CC(NCc1cc(-c4cccs4)on1)(C3)C2	2500
c1csc(-c2cc(NC34CC5CC(CC(C5)C3)C4)no2)c1	353
COc1ccsc1-c1cc(CNC23CC4CC(CC(O)(C4)C2)C3)no1	404
NC12CC3CC(CC(C3)C1)C2 [AMANTADINE]	22500

The compounds below were run on Influenza A virus (assay: Antiviral activity against Influenza A virus A/WSN/33(H1N1) expressing M2 proton channel S31N mutant infected in MDCK cells assessed as plaque formation at 1 uM preincubated for 30 mins followed by infection measured on day 2 post infection by naphthalene black dye-based assay relative to control).
Type: functional, A/WSN/1933(H1N1)

Compound	Activity [%]
c1ccc(-c2cc(CNC34CC5CC(CC(C5)C3)C4)no2)cc1	26
OC12CC3CC(C1)CC(NCc1cc(-c4cccs4)on1)(C3)C2	40
CC(C)c1cc(CNC23CC4CC(CC(C4)C2)C3)no1	66
c1c(CNC23CC4CC(CC(C4)C2)C3)noc1C1CCCCC1	57
COc1cccc(-c2cc(CNC34CC5CC(CC(C5)C3)C4)no2)c1	39
c1c(CNC23CC4CC(CC(C4)C2)C3)noc1C1CCC1	42
OC1C2CC3CC1CC(NCc1cc(-c4cccs4)on1)(C3)C2 (configuration not stated)	10
O=C1C2CC3CC1CC(NCc1cc(-c4cccs4)on1)(C3)C2	31
Fc1cccc(F)c1-c1cc(CNC23CC4CC(CC(C4)C2)C3)no1	56
c1csc(-c2nnc(CNC34CC5CC(CC(C5)C3)C4)s2)c1	39
COc1ccc(-c2nc(CNC34CC5CC(CC(C5)C3)C4)no2)cc1	92
C(NC12CC3CC(CC(C3)C1)C2)c1noc(C2CC2)n1	82
COc1ccccc1-c1nc(CNC23CC4CC(CC(C4)C2)C3)no1	66
c1csc(-c2cc(CNC34CC5CC(C3)C3(CO3)C(C5)C4)no2)c1 (configuration not stated)	72
Clc1ccccc1-c1nc(CNC23CC4CC(CC(C4)C2)C3)no1	88
c1c(CNC23CC4CC(CC(C4)C2)C3)noc1C1CC1	42
OC12CC3CC(O)(C1)CC(NCc1cc(-c4cccs4)on1)(C3)C2	69
c1cc(-c2cc(CNC34CC5CC(CC(C5)C3)C4)no2)cs1	47
c1coc(-c2cc(CNC34CC5CC(CC(C5)C3)C4)no2)c1	47
CC1(O)C2CC3CC1CC(NCc1cc(-c4cccs4)on1)(C3)C2 (configuration not stated)	27
COc1ccc(-c2cc(CNC34CC5CC(CC(C5)C3)C4)no2)cc1	59
c1csc(-c2cc(CNC34CC5COC(CC(C5)C3)C4)no2)c1 (configuration not stated)	58
c1cc(-c2nc(CNC34CC5CC(CC(C5)C3)C4)no2)cs1	74
CCCc1cc(CNC23CC4CC(CC(C4)C2)C3)no1	73
c1csc(-c2cc(NC34CC5CC(CC(C5)C3)C4)no2)c1	32
c1csc(-c2nc(CNC34CC5CC(CC(C5)C3)C4)no2)c1	66
COc1ccc(-c2nc(CNC34CC5CC(CC(C5)C3)C4)no2)c(OC)c1	76
COc1ccsc1-c1cc(CNC23CC4CC(CC(O)(C4)C2)C3)no1	33
COc1ccsc1-c1cc(CNC23CC4CC(CC(C4)C2)C3)no1	39
Clc1ccccc1-c1cc(CNC23CC4CC(CC(C4)C2)C3)no1	84

Reference: ChEMBL document CHEMBL3769344 (J Med Chem, 2016)
